How the values were obtained:
hM2 receptor = target: T1, hM2 receptor (Homo sapiens, UniProt P08172); assay: Blockade of agonist-mediated inhibition of cAMP accumulation; format: cell-based; settings: CHO-K1 cells expressing the hM2 receptor; read-out: Ki value for blockade of oxotremorine-inhibition of forskolin-mediated cAMP accumulation
T1 construct: expressed in transfected cells; host or cells: CHO-K1 cells
T1 sequence (P08172 1-466): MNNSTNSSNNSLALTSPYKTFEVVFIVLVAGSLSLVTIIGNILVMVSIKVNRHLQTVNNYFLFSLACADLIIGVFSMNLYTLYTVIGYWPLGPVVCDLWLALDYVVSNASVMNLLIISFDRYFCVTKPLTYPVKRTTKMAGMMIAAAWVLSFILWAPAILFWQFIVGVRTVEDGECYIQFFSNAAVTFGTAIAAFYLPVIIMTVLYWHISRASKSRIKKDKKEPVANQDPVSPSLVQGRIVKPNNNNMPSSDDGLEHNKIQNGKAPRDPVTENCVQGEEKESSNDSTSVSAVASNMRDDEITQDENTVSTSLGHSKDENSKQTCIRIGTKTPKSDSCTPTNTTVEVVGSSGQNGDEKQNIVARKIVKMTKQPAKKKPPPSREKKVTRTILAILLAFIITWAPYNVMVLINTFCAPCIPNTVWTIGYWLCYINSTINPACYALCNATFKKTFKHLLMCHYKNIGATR
Procedure: A. Blockade of Agonist-Mediated Inhibition of cAMP Accumulation
In this assay, the functional potency of a test compound was determined by measuring the ability of the test compound to block oxotremorine-inhibition of forskolin-mediated cAMP accumulation in CHO-K1 cells expressing the hM2 receptor.
cAMP assays were performed in a radioimmunoassay format using the Flashplate Adenylyl Cyclase Activation Assay System with ^125I-cAMP (NEN SMP004B, PerkinElmer Life Sciences Inc., Boston, Mass.), according to the manufacturer's instructions.
Cells were rinsed once with dPBS and lifted with Trypsin-EDTA solution (0.05% trypsin/0.53 mM EDTA) as described in the Cell Culture and Membrane Preparation section above. […] The cell pellet was then re-suspended in 10 mL dPBS, and the cells were counted with a Coulter Z1 Dual Particle Counter (Beckman Coulter, Fullerton, Calif.). […]
Reactions were incubated for 10 minutes at 37° C. and stopped by addition of 100 μL ice-cold detection buffer. Plates were sealed, incubated overnight at room temperature and counted the next morning on a PerkinElmer TopCount liquid scintillation counter (PerkinElmer Inc., Wellesley, Mass.). The amount of cAMP produced (pmol/well) was calculated based on the counts observed for the samples and cAMP standards, as described in the manufacturer's user manual. […]

[1] = system: pilocarpine-evoked salivation; assay: Inhalation guinea pig salivation assay; format: in vivo
Procedure: Guinea pigs (Charles River, Wilmington, Mass.) weighing 200-350 g were acclimated to the in-house guinea pig colony for at least 3 days following arrival. Test compound or vehicle were dosed via inhalation (IH) over a 10 minute time period in a pie shaped dosing chamber (R+S Molds, San Carlos, Calif.). Test solutions were dissolved in sterile water and delivered using a nebulizer filled with 5.0 mL of dosing solution. Guinea pigs were restrained in the inhalation chamber for 30 minutes. During this time, guinea pigs were restricted to an area of approximately 110 cm^2. This space was adequate for the animals to turn freely, reposition themselves, and allow for grooming. […] Upon completion of nebulization, guinea pigs were evaluated at 1.5, 6, 12, 24, 48, or 72 hrs after treatment.
Guinea pigs were anesthetized one hour before testing with an intramuscular (IM) injection of a mixture of ketamine 43.75 mg/kg, xylazine 3.5 mg/kg, and acepromazine 1.05 mg/kg at an 0.88 mL/kg volume. […] Saliva was collected for 10 minutes, at which point the gauze pad was weighed and the difference in weight recorded to determine the amount of accumulated saliva (in mg). The mean amount of saliva collected for animals receiving the vehicle and each dose of test compound was calculated. […] Results were calculated using result means (n=3 or greater). […]

Ki (hM2 receptor): < 5 nM
Structure (SMILES): CNCCCCCCCCN1CC[C@@H](C(C(N)=O)(c2ccccc2)c2ccccc2)C1 [compound of formula I, 2-[(S)-1-(8-methylaminooctyl)pyrrolidin-3-yl]-2,2-diphenylacetamide]
apparent lung selectivity index (ratio of anti-sialagogue ID50 to bronchoprotective ID50) [1]: greater than 5

Reference: patent US7524880B2, “Crystalline form of a substituted pyrrolidine compound” (Theravance, Inc., priority 2004, dated 2009)
